# Experimental data reported in patent US12648957B2, “Compositions and methods for the treatment of SWI-SNF mutant tumors” (The Children's Hospital of Philadelphia, priority 2019, dated 2026).
# Legend:
# [1] = tested on: BT12 and G401 rhabdoid tumor cells; assay: Live cell imaging proliferation and phenotype (Incucyte Zoom); format: cell-based; conditions: BT12, EC-8042 200 nM compared with mithramycin 100 nM
# Protocol: (§1) Cell Proliferation Assays. IC50s were calculated with non-linear regression (Graphpad Prism) as the average of three independent experiments performed in duplicate. Cell viability was measured using MTS assay CellTiter96 (Promega) plotted against a standard curve and was confirmed with real-time proliferation assays on the Incucyte Zoom, as previously described (Harlow et al., 2019).
# [2] = tested on: G401 rhabdoid tumor xenografts; assay: Intramuscular G401 rhabdoid tumor xenograft model; conditions: for median survival: vehicle 28-days
# Protocol: Xenograft Experiments. 5×10^6 G401-luc cells were injected intramuscularly into the gastrocnemius of 8 to 10-week-old female homozygous nude mice (Crl; Nu-Foxn1^Nu). […] Pumps were implanted intraperitoneally and removed with 7-days after end of drug delivery. […] Investigators were not blinded to the treatment groups.
# Bioluminescence Imaging. Mice were administered Firefly D-Luciferin (GoldBio, 1.5 mg/mouse) with intraperitoneal injections. After injection anesthesia was administered throughout the image acquisition (3% isoflurane at 1 L/min 02 flow). Bioluminescent images were taken 10 minutes after injection using the AMI-1000 imaging system.
# Tissue Staining and Immunohistochemistry. Tissues were decalcified in 10% EDTA (pH 8.0) for 7-days prior to paraffin embedding. Paraffin embedded tissue was sectioned into 5-micrometer sections and mounted on colormark plus charged slides. Hematoxylin and Eosin staining was performed on the Ventana Symphony instrument. For immunohistochemistry, antigen retrieval was performed on the PT Link platform on the Dako Autostainer Plus instrument. Following blocking, tissue was incubated with H3K27me3 antibody (Abcam 1:250) or Cleaved Caspase-3 (Cell Signaling Antibody 1:250), washed and then secondary antibody (Envision+System HRP labelled polymer Anti-Rabbit, Dako 1:100) and finished with Dako Liquid DAB+Substrate Chromogen System.
# [3] = tested on: BT12 and G401 rhabdoid tumor cells; assay: Dose response curves in BT12 and G401 cells; format: cell-based; conditions: for sensitivity of rhabdoid tumor cells (dose response curve): BT12 and G401
# Protocol: (§2) Cell Culture. BT12 and CHLA266 cell lines were obtained from the Children's Oncology Group. G401 cell line was obtained from ATCC. TC32 cells were obtained from Dr. Lee Helman (Children's Hospital of Los Angeles). U2OS cells were obtained from Dr. Chand Khanna (Ethos Veterinary Health LLC). All cell lines were grown in RPMI-1640 medium (Invitrogen) supplemented with 10% fetal bovine serum (Gemini Bio-Products), 2 mM L-glutamine (Invitrogen), 100 U/mL penicillin and 100 μg/mL streptomycin (Invitrogen). Cell lines were maintained at less than 80% confluency at 37° C. and 5% CO2 and confirmed to be mycoplasma negative every 6-months.
# as §1
# [4] = multiple species; cited from earlier work
# [5] = tested on: rhabdoid tumor cell lines (BT12 AT/RT, CHLA266 AT/RT, and G401 RTK); assay: Cell proliferation assay (MTS CellTiter96), rhabdoid tumor vs Ewing sarcoma cells; format: cell-based; conditions: three rhabdoid tumor cell lines vs Ewing sarcoma cells, FIG. 1C
# Protocol: as §2, §1
# SP1 = SP1 expression by quantitative PCR and western blot; conditions: BT12 and G401 cells, tolfenamic acid concentrations of FIG. 3G
# Protocol: RNA was subsequently collected using the RNeasy kit and quantified. The RNA was reverse transcribed with the high capacity reverse transcriptase kit (Life Technologies) at 25° C. for 10 minutes, 37° C. for 120 minutes, and 85° C. for 5 minutes. 100 ng cDNA was PCR amplified with 2×SYBR green at 95° C. for 10 min, 95° C. for 15 s, 55° C. for 15s, and 72° C. for 1 min, for 40 cycles. Expression from three independent experiments performed in duplicate was calculated with standard ddCT methods relative to GAPDH and solvent controls.
# Cellular fractionation was performed to separate cytoplasmic and nuclear fractions. Fractionation lysates were lysed with cytoplasmic lysis buffer (25 mM HEPES pH 8.0, 50 mM KCl, and 05% NP-40) supplemented with RNAse (Thermo Fisher Scientific) and protease inhibitors (Sigma-Aldrich) for 15-minutes on ice vortexing every 5-minutes. The nuclei were pelleted at 1500× g for 5 minutes and the cytoplasmic fraction was isolated. The nuclei pellet was lysed with 4% LDS lysis buffer. Following dilution of detergent, protein was quantified with the BCA colorimetric assay (Thermo-Scientific). […] Transfer was run at 20 V and 4° C. overnight. The membranes were blocked with 5% milk in TBS-T (1×TBS, 0.1% Tween-20) and probed with Abcam (H3K27me3), EMD Millipore (SP1), and Cell Signaling (SMARCC1, SMARCE1, H3) antibodies.
# [6] = EC-8042 3-day pump, day 4, vs vehicle
smiles,measurement,setting,value
"CO[C@@H]([C@@H]1Cc2cc3cc(O[C@H]4CC(O[C@H]5CC(O)[C@H](O)C(C)O5)[C@H](O)C(C)O4)c(C)c(O)c3c(O)c2C(=O)[C@H]1O[C@H]1CC(O[C@H]2CC(O[C@H]3CC(O)[C@H](O)C(C)O3)[C@@H](O)C(C)O2)[C@H](O)C(C)O1)[C@@H](O)C(C)=O (stereo partly drawn) [EC-8042, demycarosyl-3D-β-D-ditioxosyl-mithramycin SK]",cell phenotype,[1],lipid accumulation and a flattened cell phenotype
same,body weight,"[2]; EC-8042 3-day and 7-day pump, resolved with cessation of drug infusion",minimal transient weight loss
same,differentiation in xenograft tumors (H&E),[2]; EC-8042 3-day or 7-day pump,striking evidence of mesenchymal differentiation
same,median survival,[2]; EC-8042 3-day pump (30 mg/kg),68 days
same,mice with complete cures,[2]; EC-8042 3-day pump cohort,Three
same,H3K27ac staining (IHC),[2]; [6],decrease
same,H3K27me3 staining (IHC),[2]; [6],significantly increase in positive staining
same,cleaved caspase 3 (CC3) staining (IHC),[2]; [6],significantly increase in positive staining
same,human mitochondrial staining (IHC),[2]; [6],decrease
same,median survival,[2]; EC-8042 7-day pump (50 mg/kg),70 days
same,calcification of tumor tissue (micro-CT),"[2]; EC-8042, 7-days after treatment, compared with vehicle",enhances the calcification and mineralization
same,duration of response post end of infusion,"[2]; EC-8042, most mice",~6 weeks
same,time after treatment without tumor recurrence in cured mice,"[2]; EC-8042, several mice",140 days
same,bioluminescent imaging of tumor,"[2]; EC-8042, subset of mice, end of infusion",almost no detectable tumor
same,time to tumor recurrence after treatment end,[2]; EC-8042 continuous infusion,approximately 40 days
same,tumor response,"[2]; EC-8042 continuous infusion, 3-days (30 mg/kg) or 7-days (50 mg/kg), all mice in both cohorts",striking regressions
same,sensitivity of rhabdoid tumor cells (dose response curve),[3],sensitive
same,"concentration at which rhabdoid tumor is sensitive, relative to mithramycin","[3]; in vitro, FIGS. S5A-B",slightly higher concentration as mithramycin
same,toxicity relative to mithramycin,[4],more than 10 times
CCc1c2c(nc3ccc(O)cc13)-c1cc3c(c(=O)n1C2)COC(=O)[C@]3(O)CC [SN38],fold less sensitive than Ewing sarcoma cells,[5],100 fold
COc1cccc2c1C(=O)c1c(O)c3c(c(O)c1C2=O)C[C@@](O)(C(=O)CO)C[C@@H]3O[C@H]1C[C@H](N)[C@H](O)[C@H](C)O1 [doxorubicin],fold less sensitive than Ewing sarcoma cells,[5],4 fold
COc1cc([C@@H]2c3cc4c(cc3[C@@H](O[C@@H]3O[C@@H]5CO[C@@H](C)O[C@H]5[C@H](O)[C@H]3O)[C@H]3COC(=O)[C@H]23)OCO4)cc(OC)c1O [etoposide],fold less sensitive than Ewing sarcoma cells,[5],70 fold
"Cc1c(Cl)cccc1Nc1ccccc1C(=O)O [tolfenamic acid, reference compound]",SP1 expression (western blot),SP1,loss of SP1 expression
same,sensitivity of rhabdoid tumor cells (dose response curve),[3],not sensitive
